{"source": "patent US20020040018A1", "about": "“Subtype selective melatonergics” (priority 2000, published 2002)", "key": {"CF No. 1 mice": {"test_system": "CF No. 1 mice", "experiment": "Maximal electroshock, s.c. pentylenetetrazole seizure threshold and threshold tonic extension tests in CF No. 1 mice", "format": "in vivo", "experimental": "In vivo anticonvulsant activity of CGX-031-120 is analyzed in CF No. 1 mice as described by White et al. (1995), using the maximal electroshock, subcutaneous pentylenetetrazole (Metrazol) seizure threshold and threshold tonic extension test."}, "MT2": {"target": "T1, MT2 (Homo sapiens, UniProt P49286)", "T1 construct": "expressed in transfected cells; host or cells: NIH-3T3 cells", "T1 sequence (P49286 1-362)": "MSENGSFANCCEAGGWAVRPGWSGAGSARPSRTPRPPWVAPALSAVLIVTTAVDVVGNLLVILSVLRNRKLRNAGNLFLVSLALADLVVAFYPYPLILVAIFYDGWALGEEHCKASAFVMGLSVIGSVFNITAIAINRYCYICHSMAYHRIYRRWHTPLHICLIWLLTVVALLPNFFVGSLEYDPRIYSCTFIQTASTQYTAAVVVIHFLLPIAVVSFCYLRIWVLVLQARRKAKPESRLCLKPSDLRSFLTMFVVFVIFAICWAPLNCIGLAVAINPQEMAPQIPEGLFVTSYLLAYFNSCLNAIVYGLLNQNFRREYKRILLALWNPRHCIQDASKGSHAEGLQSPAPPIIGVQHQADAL", "experiment": "Forskolin stimulated cAMP release from NIH-3T3 cells (MT2)", "format": "cell-based"}, "mice": {"test_system": "mice", "experiment": "Neuropathic pain, partial sciatic nerve ligation model", "details": "mouse, in vivo", "excerpt": "Neuropathic pain. The partial sciatic nerve ligation model is used to assess the efficacy of CGX-031-120 in neuropathic pain. Nerve injury is produced according to the methods of Malmberg and Basbaum (1998). Animals are anesthetized with a ketamine/xylazine solution, the sciatic nerve is exposed and tightly ligated with 8-0 silk suture around ⅓ to ½ of the nerve. In sham-operated mice the nerve is exposed, but not ligated. Animals are allowed to recover for at least 1 week before testing is performed. On the testing day, mice are placed in plexiglass cylinders on a wire mesh frame and allowed to habituate for at least 60 minutes. Mechanical allodynia is assessed with calibrated von Frey filaments using the up-down method as described by Chaplan et al. (1994), and the 50% withdrawal threshold is calculated."}}}
{"smiles": "CCC(=O)NCCc1c2n(c3ccc(OC)cc13)Cc1ccccc1-2", "note": "[CGX-031-120, N-propanol-2-(2-methoxy-6H-isoindolo-[2,1a]-indol-11-yl)-ethanamine]", "values": [{"measurement": "anticonvulsant activity", "setting": "CF No. 1 mice", "value": "found to have anticonvulsant activity"}, {"measurement": "MT2 Selectivity", "setting": "MT2; cAMP assay, mt1 vs MT2", "value": 44}, {"measurement": "EC50", "setting": "MT2; forskolin stimulated cAMP, NIH-3T3 cells", "value": 0.05, "unit": "nM"}, {"measurement": "analgesic activity in a model of neuropathic pain", "setting": "mice", "value": "shows analgesic activity"}]}
